Results: PubChem BioAssay (NCI)
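Results reflect a 48-hour exposure of cells in 96-well plates to compound at five concentrations. TGI denotes the concentration required for complete inhibition of growth.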

Assays:
Assay in all cases: DTP human tumour cell line panel, 48 h
A549 NSCLC = tested on: A549 NSCLC
K-562 leukemia = tested on: K-562 leukemia
HS 578T breast = tested on: HS 578T breast
NCI-H23 lung = tested on: NCI-H23 lung
T-47D breast = tested on: T-47D breast
SW-620 colon = tested on: SW-620 colon
SK-OV-3 ovarian = tested on: SK-OV-3 ovarian
SNB-75 CNS = tested on: SNB-75 CNS
MOLT-4 leukemia = tested on: MOLT-4 leukemia
SR leukemia = tested on: SR leukemia

Row | SMILES | TGI (A549 NSCLC) [µM] | TGI (K-562 leukemia) [µM] | TGI (HS 578T breast) [µM] | TGI (NCI-H23 lung) [µM] | TGI (T-47D breast) [µM] | TGI (SW-620 colon) [µM] | TGI (SK-OV-3 ovarian) [µM] | TGI (SNB-75 CNS) [µM] | TGI (MOLT-4 leukemia) [µM] | TGI (SR leukemia) [µM]
1 | Cc1cc(N(C)C)c2ccccc2[n+]1CCCCCCCCCC[n+]1c(C)cc(N(C)C)c2ccccc21 | 18 | > 35.3 | > 95.3 | 5.32 | 15.2 | 16.5 | 5.81 | 8.91 | 13.8 | –
2 | O=C(CN1C(=O)CC(c2ccccc2)(c2ccccc2)C1=O)N1CCN(CCO)CC1 | > 100 | > 100 | > 100 | > 100 | > 100 | > 100 | > 100 | > 100 | > 100 | –
3 | CC1OC(O[C@H]2C3C=CO[C@@H](OC4OC(CO)C(O)C(O)C4O)C3[C@@]3(COC(=O)/C=C/c4ccccc4)O[C@@H]23)C(O)C(O)C1O (some centres undefined) | > 100 | > 100 | > 100 | > 100 | > 100 | > 100 | > 100 | > 100 | > 100 | –
4 | COc1ccc(-c2nc3ccccc3c(=S)n2OC(C)=O)cc1 | > 25 | > 25 | > 25 | > 25 | > 25 | > 25 | > 25 | > 25 | > 25 | –
5 | CCOC(=O)/C=C1/C(CCCOCc2ccccc2)C2CCCC23CC2(CCN13)OCCO2 (centres undefined) | 63.9 | 63.7 | – | 43.8 | – | > 100 | 82.9 | 9.41 | 33.2 | –
6 | COc1cc(C=O)ccc1O | > 100 | > 100 | > 100 | > 100 | > 100 | > 100 | – | > 100 | > 100 | > 100
7 | Cc1cc(C)nc(NC(=S)Nc2ccc([N+](=O)[O-])cc2)c1 | – | > 100 | > 100 | > 100 | > 100 | > 100 | – | > 100 | > 100 | > 100
8 | O=C1NC(O)CCN1C1OC(CO)C(O)C1O (centres undefined) | > 250 | > 250 | – | > 250 | – | > 250 | > 250 | > 250 | > 250 | –
9 | COC(=O)c1ccccc1CC1Cc2cccc(C)c2C1=O (centres undefined) | > 100 | 68.4 | > 100 | > 100 | 82.7 | > 100 | > 100 | 86.8 | 51.2 | –
10 | CCC(C)(C)n1c(C)nc2c1C(=O)c1ccccc1C2=O | > 100 | > 100 | – | 60.4 | – | > 100 | > 100 | > 100 | > 100 | 42.7
11 | CN(C)Cc1cc(C(=O)/C=C/c2ccc([N+](=O)[O-])cc2)cc(CN(C)C)c1O | 89 | > 100 | 60.3 | 47.5 | 32 | 27.1 | – | 33.3 | 51.2 | 22.2
12 | COc1ccc(CC(N)=O)cc1OC | > 1250 | > 1250 | – | > 1250 | – | > 1250 | > 1250 | > 1250 | > 1250 | –
13 | O=C(OCC(Cl)(Cl)Cl)N1CC[C@H](C2CCCCC2)C1 | 36.1 | 53 | – | 33.2 | 35.1 | – | 31.8 | 35.9 | 50.5 | 40.6
14 | COc1ccc(NC(=O)CSc2nnc(-c3ccc(NC(C)=O)cc3)o2)cc1 | 45.3 | > 100 | – | 23.2 | – | – | > 100 | > 100 | 40.9 | –
15 | CNc1[nH]c(=S)nc2sc3c(c12)CCCC3 | – | > 75 | > 75 | > 75 | > 75 | > 75 | – | > 75 | > 75 | > 75
16 | Cc1ccsc1/C=N/Nc1cnccn1 | > 100 | > 100 | > 100 | > 100 | > 100 | > 100 | > 100 | > 100 | > 100 | –
17 | Cc1cc(OP2(=O)NCc3ncccc3O2)ccc1Cl (centres undefined) | > 100 | > 100 | – | > 100 | > 100 | > 100 | – | > 100 | > 100 | > 100
18 | CCOC(=O)CNC(=O)NC12CC3CC(CC(C3)C1)C2 | > 550 | > 550 | – | > 515 | – | > 550 | > 517 | 408 | > 550 | –
19 | O=C1CSC2(CC(/C=C/c3cccs3)=NN2c2cccc(S(=O)(=O)O)c2)N1c1nc2ccccc2s1 (centres undefined) | > 100 | > 100 | > 100 | > 100 | 80.2 | > 100 | – | > 100 | > 100 | > 100
20 | CC(C)(C)c1ccc2c(c1)C#Cc1cc3c(cc1OCCCO2)C#Cc1cc(C(C)(C)C)ccc1OCCCO3 | > 100 | > 100 | > 100 | 4.54 | > 100 | > 100 | > 100 | – | > 100 | –
21 | COc1cc2c(cc1OCCCN1C(=O)c3cccc4cccc(c34)C1=O)N=C[C@@H]1CCCN1C2=O | > 100 | > 80.5 | – | > 100 | > 100 | > 63 | > 100 | – | > 65.4 | 25.5
22 | CCCN(CCC)c1c([N+](=O)[O-])cc(C(=O)N(CC)CC)cc1[N+](=O)[O-] | 38.1 | > 100 | – | 40.8 | – | 84.1 | 96 | 82.7 | 50 | 55.2
23 | Nc1c(S(=O)(=O)c2ccc(Cl)cc2)c2nc3ccccc3nc2n2ccnc12 | > 100 | > 100 | – | > 100 | – | – | > 100 | 93.2 | > 100 | –
24 | CN1Cc2c(nc(-c3ccccc3)c[n+]2[O-])N(C)C1 | > 100 | > 100 | – | > 100 | – | > 100 | > 100 | > 100 | > 100 | –
25 | O=C1c2cccc3cccc(c23)C(=O)N1CCCNCCCCNCCCNCCCN1C(=O)c2cccc3cccc(c23)C1=O | 1.39 | 3.79 | 2.11 | 1.72 | – | 4.35 | 3.42 | 1.46 | – | –
